Experimental data published in ChEMBL document CHEMBL1914290, “3,4-Disubstituted oxazolidin-2-ones as constrained ceramide analogs with anticancer activities” (Bioorg Med Chem, 2011).
Calls of active or inactive are those of the source. The rule behind the calls is not given here.

Columns and labels:
HL-60 [1] = test: Antileukemic activity against human HL60 cells at 20 uM after 16 hrs by MTT assay; format: functional, cell-based
HL-60 [2] = test: Induction of apoptosis in human HL60 cells assessed as DNA fragmentation at 20 uM after 15 hrs; format: functional, cell-based

Structure (SMILES) | Activity (HL-60 [1]) | Activity (HL-60 [2])
CCCCCCCCCCCCC/C=C/[C@@H](O)[C@@H]1COC(=O)N1C(=O)c1ccco1 | Active | 
O=C1OC[C@@H]([C@H](O)/C=C/Cc2ccccc2)N1C(=O)C1CCCC1 | inactive | 
CCCCCCCCCCCCC/C=C/[C@@H](O)[C@@H]1COC(=O)N1C(=O)Cc1ccccc1 | inactive | 
CCCCCCCCCCCCC/C=C/[C@@H](O)[C@@H]1COC(=O)N1C(=O)CCCCCCCCCCCCCCC | inactive | Active
CCCCCCCCCCCCC/C=C/[C@@H](O)[C@@H]1COC(=O)N1C(=O)C/C=C/c1ccccc1 | inactive | 
CCCC/C=C/[C@@H](O)[C@@H]1COC(=O)N1C(=O)C1CCCC1 | inactive | 
CCCCCCCCCCCCC/C=C/[C@@H](O)[C@@H]1COC(=O)N1C(=O)c1ccccc1OC | Active | 
CCCCCCCCCC/C=C/[C@@H](O)[C@@H]1COC(=O)N1C(=O)C1CCCC1 | Active | 
CCCCCCCCCCCCC/C=C/[C@@H](O)[C@@H]1COC(=O)N1C(=O)c1ccc([N+](=O)[O-])cc1 | Active | Active
CCCCCCCCCCCCC/C=C/[C@@H](O)[C@@H]1COC(=O)N1C(=O)C(C)(C)C | Active | 
O=C1OC[C@@H]([C@H](O)/C=C/C2CCCCC2)N1C(=O)C1CCCC1 | inactive | 
CCCCCCCCCCCCC/C=C/[C@@H](O)[C@@H]1COC(=O)N1C(=O)c1ccccc1 | Active | Active
CCCCCC/C=C/[C@@H](O)[C@@H]1COC(=O)N1C(=O)C1CCCC1 | inactive | 
CCCCCCCCCCCCC/C=C/[C@@H](O)[C@@H]1COC(=O)N1C(C)=O | Active | Active
CCCCCCCCCCCCC/C=C/[C@@H](O)[C@@H]1COC(=O)N1C(=O)C(C)C | Active | Active
CCCCCCCCCCCCC/C=C/[C@@H](O)[C@@H]1COC(=O)N1C(=O)C1CCCC1 | Active | Active
CCCCCCCCCCCCC/C=C/[C@@H](O)[C@@H]1COC(=O)N1C(=O)c1cccc2ccccc12 | Active | 
O=C1OC[C@@H]([C@H](O)/C=C/C2CCCC2)N1C(=O)C1CCCC1 | inactive | 
CCCCCCCCCCCCC/C=C/[C@@H](O)[C@@H]1COC(=O)N1C(=O)CC | Active | Active
CCCCCCCC/C=C/[C@@H](O)[C@@H]1COC(=O)N1C(=O)C1CCCC1 | inactive | 
